From patent US20240382494A1, “THERAPEUTIC COMPOUNDS” (priority 2023, published 2024)

What was measured:
SARS-CoV-2 PLpro = SARS-CoV-2 PLpro (Severe acute respiratory syndrome coronavirus 2, UniProt P0DTD1); test: FRET-based PLpro enzymatic assay; format: biochemical; conditions: 200 nM PLpro, 10 μM FRET substrate, 30 min preincubation at 30° C.; read-out: IC50
Method: The SARS-CoV-2 PL^pro enzymatic assays were carried out as follows. The assay was assembled in 96-well plates with 100 μl of 200 nM PL^Pro protein in PL^Pro reaction buffer [50 mM Hepes (pH 7.5), 0.01% Triton X-100, and 5 mM DTT]. Then, 1 μl of testing compound at various concentrations was added to each well and incubated at 30° C. for 30 minutes. The enzymatic reaction was initiated by adding 1 μl of 1 mM FRET substrate (the final substrate concentration is 10 μM). The reaction was monitored in a Cytation 5 image reader with filters for excitation at 360/40 nm and emission at 460/40 nm at 30° C. for 1 hour. The initial velocity of the enzymatic reaction with and without testing compounds was calculated by linear regression for the first 15 minutes of the kinetic progress curve. The IC50 values were calculated by plotting the initial velocity against various concentrations of testing compounds with a dose-response function in Prism 8 software.

[1] = Cytotoxicity assay in Vero E6 cells (neutral red uptake); format: cell-based; conditions: African green monkey; Vero E6 cells, 2 days at 37° C., neutral red uptake; read-out: Vero CC50
Method: Briefly, 80.000 cells/ml of the tested cell lines were dispensed into 96-well cell culture plates at 100 μl per well Twenty-four hours later, the growth medium was removed and washed with 150 μl of PBS buffer. Two hundred microliters of fresh serum-free medium containing serial diluted compounds was added to each well. After incubating for 2 days at 37° C., the medium was removed and replaced with 100 μl of DMEM medium containing neutral red (40 μg/ml) and incubated for 2 to 4 hours at 37° C. The amount of neutral red taken up was determined by measuring the absorbance at 540 nm using a Multiskan FC Microplate Photometer (Thermo Fisher Scientific) The CC50 values were calculated from best-fit dose-response curves with variable slope in Prism 8.

Cc1ccc(OCCN(C)C)cc1C(=O)N[C@H](C)c1cc(-c2cnn(C(F)F)c2)nc2ccccc12 [Example 3, (R)—N-(1-(2-(1-(difluoromethyl)-1H-pyrazol-4-yl)quinolin-4-yl)ethyl)-5-(2-(dimethylamino)ethoxy)-2-methylbenzamide]
IC50 (SARS-CoV-2 PLpro): < 0.5 µM
CC50 at 2 days [1]: 15.2 ± 2.54 µM

Cc1ccc(OCCN(C)C)cc1C(=O)N[C@H](C)c1cc(-c2ccc3c(c2)OC(F)(F)O3)nc2ccccc12 [Example 56, (R)—N-(1-(2-(2,2-difluorobenzo[d][1,3]dioxol-5-yl)quinolin-4-yl)ethyl)-5-(2-(dimethylamino)ethoxy)-2-methylbenzamid]
IC50 (SARS-CoV-2 PLpro): < 0.5 µM
CC50 at 2 days [1]: 15.2 ± 7.09 µM

CCn1ccc(-c2cc([C@@H](C)NC(=O)c3cc(N4CCN(C)CC4)ccc3C)c3ccccc3n2)n1 [Example 108, (R)—N-(1-(2-(1-ethyl-1H-pyrazol-3-yl)quinolin-4-yl)ethyl)-2-methyl-5-(4-methylpiperazin-1-yl)benzamide]
IC50 (SARS-CoV-2 PLpro): < 0.5 µM
CC50 at 2 days [1]: 18.5 ± 1.4 µM

Cc1ccc(OCCN(C)C)cc1C(=O)N[C@H](C)c1cc(-c2ccc(CN)s2)nc2ccccc12 [Example 55, (R)—N-(1-(2-(5-(aminomethyl)thiophen-2-yl)quinolin-4-yl)-ethyl)-5-(2-(dimethylamino)ethoxy)-2-methylbenzamide]
IC50 (SARS-CoV-2 PLpro): < 0.5 µM
CC50 at 2 days [1]: 34.6 ± 8.18 µM

CSc1ccc(-c2cc([C@@H](C)NC(=O)c3cc(OCCN(C)C)ccc3C)c3ccccc3n2)cc1 [Example 70, (R)-5-(2-(dimethylamino)ethoxy)-2-methyl-N-(1-(2-(4-(methylthio)phenyl)quinolin-4-yl)ethyl)benzamide]
IC50 (SARS-CoV-2 PLpro): < 0.5 µM
CC50 at 2 days [1]: 8.5 ± 2.01 µM

Cc1ccc(OC2CN(C)C2)cc1C(=O)N[C@H](C)c1cc(-c2cnn(C)c2)nc2ccccc12 [Example 90, (R)-2-methyl-N-(1-(2-(1-methyl-1H-pyrazol-4-yl)quinolin-4-yl)ethyl)-5-((1-methylazetidin-3-yl)oxy)benzamide]
IC50 (SARS-CoV-2 PLpro): < 0.5 µM
CC50 at 2 days [1]: 72.5 ± 2.08 µM

Cc1ccc(OCCN(C)C)cc1C(=O)N[C@H](C)c1cc(-c2cncs2)nc2ccccc12 [Example 5, (R)-5-(2-(dimethylamino)ethoxy)-2-methyl-N-(1-(2-(thiazol-5-yl)quinolin-4-yl)ethyl)benzamide]
IC50 (SARS-CoV-2 PLpro): < 0.5 µM
CC50 at 2 days [1]: 44.7 ± 11.7 µM

Cc1ccc(OCCN(C)C)cc1C(=O)N[C@H](C)c1cc(-c2cnn(C(C)C)c2)nc2ccccc12 [Example 14, (R)-5-(2-(dimethylamino)ethoxy)-N-(1-(2-(1-isopropyl-1H-pyrazol-4-yl)quinolin-4-yl)ethyl)-2-methylbenzamide]
IC50 (SARS-CoV-2 PLpro): < 0.5 µM
CC50 at 2 days [1]: 37.7 ± 5.87 µM

Cc1ccc(OCCN(C)C)cc1C(=O)N[C@H](C)c1cc(-c2ccc(N3CCN(C)CC3)s2)nc2ccccc12 [Example 48, (R)-5-(2-(dimethylamino)ethoxy)-2-methyl-N-(1-(2-(5-(4-methylpiperazin-1-yl)thiophen-2-yl)quinolin-4-yl)ethyl)benzamide]
IC50 (SARS-CoV-2 PLpro): < 0.5 µM
CC50 at 2 days [1]: 15.4 ± 7.94 µM

Cc1ccc(O[C@H]2CCN(C)C2)cc1C(=O)N[C@H](C)c1cc(-c2cnn(C)c2)nc2ccccc12 [Example 82, 2-methyl-N—((R)-1-(2-(1-methyl-1H-pyrazol-4-yl)quinolin-4-yl)ethyl)-5-(((S)-1-methyl-pyrrolidin-3-yl)oxy)benzamide]
IC50 (SARS-CoV-2 PLpro): < 0.5 µM
CC50 at 2 days [1]: 48.3 ± 2.9 µM

Cc1ccc(OCCN(C)C)cc1C(=O)N[C@H](C)c1cc(-c2cccc3[nH]ncc23)nc2ccccc12 [Example 50, (R)—N-(1-(2-(1H-indazol-4-yl)quinolin-4-yl)ethyl)-5-(2-(dimethylamino)ethoxy)-2-methylbenzamide]
IC50 (SARS-CoV-2 PLpro): < 0.5 µM
CC50 at 2 days [1]: 59.5 ± 25.4 µM

Cc1ccc(OCCN(C)C)cc1C(=O)N[C@H](C)c1cc(-c2ccco2)nc2ccccc12 [Example 4, (R)5-(2-(dimethylamino)ethoxy)-N-(1-(2-(furan-2-yl)quinolin-4-yl)ethyl)-2-methylbenzamide]
IC50 (SARS-CoV-2 PLpro): < 0.5 µM
CC50 at 2 days [1]: 57.3 ± 20.4 µM

Cc1ccc(OCC2CN(C)C2)cc1C(=O)N[C@H](C)c1cc(-c2cnn(C)c2)nc2ccccc12 [Example 91, (R)-2-methyl-N-(1-(2-(1-methyl-1H-pyrazol-4-yl)quinolin-4-yl)ethyl)-5-((1-methylazetidin-3-yl)methoxy)benzamide]
IC50 (SARS-CoV-2 PLpro): < 0.5 µM
CC50 at 2 days [1]: 96.1 ± 5.36 µM

Cc1ccc(OCCN(C)C)cc1C(=O)N[C@H](C)c1cc(-c2cnn(CCN(C)C)c2)nc2ccccc12 [Example 12, (R)-5-(2-(dimethylamino)ethoxy)-N-(1-(2-(1-(2-(dimethylamino)ethyl)-1H-pyrazol-4-yl)quinolin-4-yl)ethyl)-2-methylbenzamide]
IC50 (SARS-CoV-2 PLpro): < 0.5 µM
CC50 at 2 days [1]: 114 ± 18.7 µM

COCCn1cc(-c2cc([C@H](C)NC(=O)c3cc(OCCN(C)C)ccc3C)c3ccccc3n2)cn1 [Example 19, (S)-5-(2-(dimethylamino)ethoxy)-N-(1-(2-(1-(2-methoxyethyl)-1H-pyrazol-4-yl)quinolin-4-yl)ethyl)-2-methylbenzamide]
IC50 (SARS-CoV-2 PLpro): 1 to 5 µM
CC50 at 2 days [1]: > 125 µM

Cc1ccc(OCCN(C)C)cc1C(=O)N[C@@H](C)c1cc(-c2ccnn2C)nc2ccccc12 [Example 21, (S)-5-(2-(dimethylamino)ethoxy)-2-methyl-N-(1-(2-(1-methyl-1H-pyrazol-5-yl)quinolin-4-yl)ethyl)benzamide]
IC50 (SARS-CoV-2 PLpro): 0.5 to 1 µM
CC50 at 2 days [1]: 64.7 ± 8.94 µM

Cc1ccc(N(C)C2(C)CN(C)C2)cc1C(=O)N[C@H](C)c1cc(-c2cnn(C)c2)nc2ccccc12 [Example 93, (R)-5-((1,3-dimethylazetidin-3-yl)(methyl)amino)-2-methyl-N-(1-(2-(1-methyl-1H-pyrazol-4-yl)quinolin-4-yl)ethyl)benzamide]
IC50 (SARS-CoV-2 PLpro): 1 to 5 µM
CC50 at 2 days [1]: 129 ± 2.32 µM

Cc1ccc(N2CCC3(CC2)CN(C)C3)cc1C(=O)N[C@H](C)c1cc(-c2cnn(C)c2)nc2ccccc12 [Example 92, (R)-2-methyl-N-(1-(2-(1-methyl-1H-pyrazol-4-yl)quinolin-4-yl)ethyl)-5-(2-methyl-2,7-diazaspiro[3.5]nonan-7-yl)benzamide]
IC50 (SARS-CoV-2 PLpro): 0.5 to 1 µM
CC50 at 2 days [1]: 76.5 ± 2.18 µM

Cc1ccc(OC[C@@H]2C[C@@H](F)CN2C)cc1C(=O)N[C@H](C)c1cc(-c2cnn(C)c2)nc2ccccc12 [Example 85, 5-(((2S,4R)-4-fluoro-1-methylpyrrolidin-2-yl)methoxy)-2-methyl-N—((R)-1-(2-(1-methyl-1H-pyrazol-4-yl)quinolin-4-yl)ethyl)benzamide]
IC50 (SARS-CoV-2 PLpro): < 0.5 µM
CC50 at 2 days [1]: 33.9 ± 3.74 µM

Cc1ccc(OCCN(C)C)cc1C(=O)N[C@@H](C)c1cc(-c2cnn(C3CC3)c2)nc2ccccc12 [Example 20, (S)—N-(1-(2-(1-cyclopropyl-1H-pyrazol-4-yl)quinolin-4-yl)ethyl)-5-(2-(dimethylamino)ethoxy)-2-methylbenzamide]
IC50 (SARS-CoV-2 PLpro): < 0.5 µM
CC50 at 2 days [1]: 59.6 ± 8.56 µM

Cc1ccc(N2CCN(C)[C@H](C)C2)cc1C(=O)N[C@H](C)c1cc(-c2ccn(C)n2)nc2ccccc12 [Example 99, 5-((R)-3,4-dimethylpiperazin-1-yl)-2-methyl-N—((R)-1-(2-(1-methyl-1H-pyrazol-3-yl)quinolin-4-yl)ethyl)benzamide]
IC50 (SARS-CoV-2 PLpro): < 0.5 µM
CC50 at 2 days [1]: 24.3 ± 2.62 µM

COc1cccc(-c2cc([C@@H](C)NC(=O)c3cc(OCCN(C)C)ccc3C)c3ccccc3n2)c1 [Example 67, (R)-5-(2-(dimethylamino)ethoxy)-N-(1-(2-(3-methoxyphenyl)-quinolin-4-yl)ethyl)-2-methylbenzamide]
IC50 (SARS-CoV-2 PLpro): < 0.5 µM
CC50 at 2 days [1]: 17.2 ± 3.25 µM
